Results from patent US8455475B2 (Gruenenthal GmbH, priority 2009, dated 2013).

Legend:
[1] = target: T1, human B1R (bradykinin receptor 1) (Homo sapiens, UniProt P46663); assay: FLIPR Ca2+ assay (Fluo-4) on CHO K1 cells stably transfected with the human B1R gene (hB1R cells): % inhibition at 10 μM / IC50, agonist Lys-Des-Arg9-bradykinin; assay type: cell-based; conditions: for inhibition at 10 µM: CHO-K1, human B1R
T1 construct: expressed in transfected cells; host or cells: CHO K1 cells
T1 sequence (P46663 1-353): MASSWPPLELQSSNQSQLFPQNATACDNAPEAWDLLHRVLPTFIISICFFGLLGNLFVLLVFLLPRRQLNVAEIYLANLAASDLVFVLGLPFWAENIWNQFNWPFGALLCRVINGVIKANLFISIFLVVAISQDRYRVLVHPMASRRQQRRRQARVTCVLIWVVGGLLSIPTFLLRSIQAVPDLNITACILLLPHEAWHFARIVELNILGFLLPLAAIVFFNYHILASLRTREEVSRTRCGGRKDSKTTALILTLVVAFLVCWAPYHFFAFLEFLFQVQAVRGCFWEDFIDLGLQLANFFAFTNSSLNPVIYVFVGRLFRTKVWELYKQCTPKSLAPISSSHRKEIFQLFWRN
Outline: (§1)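 Stable CHO K1 lines, Fluo-4 dye, probenecid-containing buffer. Cpd 10 μM or dose range, 10–20 min, then EC80 agonist (h: Lys-Des-Arg9-BK; r: Des-Arg9-BK). Readout peak FC; % inhibition vs max; IC50 from n=2–3, N≥2.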

[2] = target: T2, rat B1R (bradykinin receptor 1) (Rattus norvegicus, UniProt P97583); assay: FLIPR Ca2+ assay (Fluo-4) on CHO K1 cells stably transfected with the B1R gene of the rat (rB1R cells): % inhibition at 10 μM / IC50, agonist Des-Arg9-bradykinin; assay type: cell-based; conditions: for inhibition at 10 µM: CHO-K1, rat B1R
T2 construct: expressed in transfected cells; host or cells: CHO K1 cells
T2 sequence (P97583 1-337): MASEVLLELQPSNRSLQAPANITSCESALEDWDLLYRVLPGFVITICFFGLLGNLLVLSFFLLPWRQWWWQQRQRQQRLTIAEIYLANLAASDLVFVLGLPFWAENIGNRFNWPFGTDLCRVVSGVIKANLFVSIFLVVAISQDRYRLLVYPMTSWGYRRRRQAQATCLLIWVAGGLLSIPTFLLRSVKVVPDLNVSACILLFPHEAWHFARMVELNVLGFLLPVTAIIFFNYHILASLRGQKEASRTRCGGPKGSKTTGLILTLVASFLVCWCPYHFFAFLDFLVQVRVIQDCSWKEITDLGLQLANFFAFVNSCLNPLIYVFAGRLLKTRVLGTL
Outline: as §1

Compound | inhibition at 10 µM [1] [%] | inhibition at 10 µM [2] [%] | other results
O=C(NC1CCc2ccc(C(=O)N3CCC4(CCN(c5ccnc(C(F)(F)F)n5)CC4)C3)cc21)c1ccccc1Cl (stereo not shown) [Example H-51, 2-chloro-N-[6-[8-[2-(trifluoromethyl)-pyrimidin-4-yl]-3,8-diazaspiro[4.5]decane-3-carbonyl]-2,3-dihydro-1H-inden-1-yl]-benzamide] | 98 | 96 | –
O=C(NC1CCc2ccc(C(=O)N3CCC4(CC3)CCN(c3ccncc3)C4)cc21)c1cc(F)ccc1Cl (stereo not shown) [IND_CC-221, 2-Chloro-5-fluoro-N-[6-(2-pyridin-4-yl-2,8-diazaspiro[4.5]decane-8-carbonyl)-2,3-dihydro-1H-inden-1-yl]-benzamide] | 100 | 104 | –
Cc1ccc(F)c(C(=O)NC2CCc3ccc(C(=O)N4CCC5(CC4)CCN(c4ccncc4)CC5)cc32)c1Cl (stereo not shown) [IND_CC-214, 2-Chloro-6-fluoro-3-methyl-N-[6-(9-pyridin-4-yl-3,9-diazaspiro[5.5]undecane-3-carbonyl)-2,3-dihydro-1H-inden-1-yl]-benzamide] | 83 | 102 | –
CN(C(=O)c1ccccc1C(F)(F)F)C1CCc2ccc(C(=O)N3CCC4(CC3)CCN(c3ccncc3)CC4)cc21 (stereo not shown) [Ind_CC-015, N-methyl-N-[6-(9-pyridin-4-yl-3,9-diazaspiro[5.5]undecane-3-carbonyl)-2,3-dihydro-1H-inden-1-yl]-2-(trifluoromethyl)-benzamide] | 100 | 101 | –
COc1ccc2cc(C(=O)N[C@@H]3CCc4ccc(C(=O)N5CCC6(CC5)CCN(c5ccncc5)C6)cc43)ccc2c1 [Example H-68, 6-Methoxy-N-[(1R)-6-(3-pyridin-4-yl-3,8-diazaspiro[4.5]decane-8-carbonyl)-2,3-dihydro-1H-inden-1-yl]-naphthalene-2-carboxylic acid amid] | 96 | 93 | –
O=C(N[C@H]1CCCc2ccc(C(=O)N3CCC4(CC3)CCN(c3ccncc3)CC4)cc21)c1ccccc1Cl [Example H-10, 2-chloro-N-[(1S)-7-(9-pyridin-4-yl-3,9-diazaspiro[5.5]undecane-3-carbonyl)-1,2,3,4-tetrahydro-naphthalen-1-yl]-benzamide] | 49 | 103 | –
O=C(NC1CCc2ccc(C(=O)N3CCC4(CCN(C(=O)C5CC5)CC4)C3)cc21)c1ccccc1Cl (stereo not shown) [IND_CC-573, 2-Chloro-N-[6-[8-(cyclopropanecarbonyl)-2,8-diazaspiro[4.5]decane-2-carbonyl]-2,3-dihydro-1H-inden-1-yl]-benzamide] | 43 | 100 | –
O=C(N[C@@H]1CCOc2cc(C(F)(F)F)c(C(=O)N3CCC4(CCN(c5ccncc5)CC4)C3)cc21)c1ccccc1Cl [Example H-107, 2-Chloro-N-[(4R)-6-(8-pyridin-4-yl-3,8-diazaspiro[4.5]decane-3-carbonyl)-7-(trifluoromethyl)-3,4-dihydro-2H-chromen-4-yl]-benzamide] | 72 | 108 | –
O=C(NC1CCc2ccc(C(=O)N3CCC4(CCN(c5ccncc5)CC4)C3)cc21)C(c1ccccc1)c1ccccc1Cl (stereo not shown) [Ind_CC-082, 2-(2-chlorophenyl)-2-phenyl-N-[6-(8-pyridin-4-yl-3,8-diazaspiro[4.5]decane-3-carbonyl)-2,3-dihydro-1H-inden-1-yl]-acetamide] | 100 | 101 | –
O=C(N[C@@H]1CCc2cc(F)c(C(=O)N3CCC4(CC3)CCN(c3ccncc3)C4)cc21)c1ccccc1Cl [Example H-89, 2-Chloro-N-[(1R)-5-fluoro-6-(3-pyridin-4-yl-3,8-diazaspiro[4.5]decane-8-carbonyl)-2,3-dihydro-1H-inden-1-yl]-benzamide] | 99 | 103 | –
O=C(N[C@@H]1CCCc2ccc(C(=O)N3CCC4(CCCN(c5ccncc5)C4)C3)cc21)c1ccccc1Cl (stereo partly drawn) [Example H-81, 2-Chloro-N-[(1R)-7-(7-pyridin-4-yl-3,7-diazaspiro[4.5]decane-3-carbonyl)-1,2,3,4-tetrahydro-naphthalen-1-yl]-benzamide] | 78 | 103 | –
O=C(c1cccc2c1CC[C@H]2N1Cc2cccc(Cl)c2C1=O)N1CCC2(CC1)CCN(c1ccncc1)CC2 [Example H-170, 7-Chloro-2-[(1R)-4-(9-pyridin-4-yl-3,9-diazaspiro[5.5]undecane-3-carbonyl)-2,3-dihydro-1H-inden-1-yl]-2,3-dihydro-isoindol-1-one] | 56 | 47 | –
CN(C(=O)c1ccccc1Cl)C1CCc2ccc(C(=O)N3CCC4(CC3)CCN(c3ccncc3)CC4)cc21 (stereo not shown) [IND_CC-272, 2-Chloro-N-methyl-N-[6-(9-pyridin-4-yl-3,9-diazaspiro[5.5]undecane-3-carbonyl)-2,3-dihydro-1H-inden-1-yl]-benzamide] | – | – | % Inhibition (human B1R) at 10 μM ([1]; 10 µM): 99%; % Inhibition (rat B1R) at 10 μM ([2]; 10 µM): 107%
CN(C)C1(c2ccc(F)cc2)CCC2(CCN(C(=O)c3ccc4c(c3)C(NC(=O)c3ccccc3Cl)CC4)CC2)CC1 (stereo not shown) [Ind_CC-099, 2-chloro-N-[6-[9-dimethylamino-9-(4-fluorophenyl)-3-azaspiro[5.5]undecane-3-carbonyl]-2,3-dihydro-1H-inden-1-yl]-benzamide] | 39 | 103 | –
COc1cc(C)c(S(=O)(=O)N[C@@H]2CCCc3ccc(C(=O)N4CCC5(CC4)CCN(c4ccncc4)CC5)cc32)c(C)c1 [Example H-17, 4-methoxy-2,6-dimethyl-N-[(1R)-7-(9-pyridin-4-yl-3,9-diazaspiro[5.5]undecane-3-carbonyl)-1,2,3,4-tetrahydro-naphthalen-1-yl]-benzenesulfonic acid amide] | 98 | 102 | –
O=C(c1ccc2c(c1)C(N(C(=O)c1ccccc1Cl)C1CC1)CC2)N1CCC2(CCN(c3ccncc3)CC2)C1 (stereo not shown) [Ind_CC-118, 2-chloro-N-cyclopropyl-N-[6-(8-pyridin-4-yl-2,8-diazaspiro[4.5]decane-2-carbonyl)-2,3-dihydro-1H-inden-1-yl]-benzamide] | 100 | 103 | –
O=C(c1ccc2c(c1)C(N1Cc3cccc(Cl)c3C1=O)CC2)N1CCC2(CC1)CCN(c1ccncc1)CC2 (stereo not shown) [Example H-01, 7-chloro-2-[6-(9-pyridin-4-yl-3,9-diazaspiro[5.5]undecane-3-carbonyl)-2,3-dihydro-1H-indan-1-yl]-2,3-dihydro-isoindol-1-one] | 100 | 97 | –
O=C(NC1CCc2ccc(C(=O)N3CCC4(CCN(c5ccncc5)CC4)C3)cc21)c1ccccc1C(F)(F)F (stereo not shown) [Ind_CC-081, N-[6-(8-pyridin-4-yl-3,8-diazaspiro[4.5]decane-3-carbonyl)-2,3-dihydro-1H-inden-1-yl]-2-(trifluoromethyl)-benzamide] | 99 | 101 | –
CN(C(=O)c1ccccn1)C1CCc2ccc(C(=O)N3CCC4(CC3)CCN(c3ccncc3)CC4)cc21 (stereo not shown) [Ind_CC-014, N-methyl-N-[6-(9-pyridin-4-yl-3,9-diazaspiro[5.5]undecane-3-carbonyl)-2,3-dihydro-1H-inden-1-yl]-pyridine-2-carboxylic acid amide] | 93 | 101 | –
O=C(NC1CCc2ccc(C(=O)N3CCC4(CCN(c5ccc(C(F)(F)F)cn5)CC4)C3)cc21)c1ccccc1Cl (stereo not shown) [Example H-48, 2-chloro-N-[6-[8-[5-(trifluoromethyl)-pyridin-2-yl]-3,8-diazaspiro[4.5]decane-3-carbonyl]-2,3-dihydro-1H-inden-1-yl]-benzamide] | 63 | 97 | –
O=C(NC1CCc2ccc(C(=O)N3CCC4(CCN(c5ccncc5)CC4)C3)cc21)c1cc(C(F)(F)F)ccc1Cl (stereo not shown) [IND_CC-251, 2-Chloro-N-[6-(8-pyridin-4-yl-2,8-diazaspiro[4.5]decane-2-carbonyl)-2,3-dihydro-1H-inden-1-yl]-5-(trifluoromethyl)-benzamide] | 100 | 99 | –
2-Chloro-N-[6-(2-pyridin-4-yl-2,8-diazaspiro[4.5]decane-8-carbonyl)-2,3-dihydro-1H-inden-1-yl]-6-(trifluoromethyl)-benzamide [IND_CC-205] | – | – | % Inhibition (human B1R) at 10 μM [1]: 100%; % Inhibition (rat B1R) at 10 μM [2]: 103%
COc1ccc(C(=O)N[C@@H]2CCc3ccc(C(=O)N4CCC5(CCN(c6ccncc6)CC5)C4)cc32)c(C)c1 [Example H-61, 4-Methoxy-2-methyl-N-[(1R)-6-(8-pyridin-4-yl-3,8-diazaspiro[4.5]decane-3-carbonyl)-2,3-dihydro-1H-inden-1-yl]-benzamide] | 100 | 104 | –
